Results published in paper PMC4580987, “Catalytic site inhibition of insulin-degrading enzyme by a small molecule induces glucose intolerance in mice” (Nature Communications, 2015).
Entries after “also recorded” stand apart in the source; their conditions may differ.

Legend:
Stability in rat plasma = type: in vitro ADME; conditions: both sexes, 37 °C, read-out: Plasma stability r (t1/2)
Method: Incubations were performed in duplicate in Eppendorf tubes. The plasma (mouse plasma, rat plasma (mixed gender), human (mixed gender, all lithium heparine, from Sera Laboratories International) or cell culture medium (differenciation medium: DMEM (Life Technologies, Ref 41965), 0.4 % gentamicine, 10 % FCS (Lonza, Ref DE14-801F) or proliferation medium: DMEM (Life Technologies, Ref 41965), 0.4 % gentamicine, 2 % horse serum (Gbco, Ref16050) was pre-incubated 5 min at 37 °C before the addition of test compounds to a final concentration of 10 μM (1% DMSO maximum). At the defined time points, 50 μl from each tube were removed to another tube containing 450 μl of cold CH3CN+ internal standard (1 μM). After centrifugation (10 min at 10,000 r.p.m.), supernatants are analysed. The degradation half-life (t1/2) values were calculated as t1/2=0.693/k where k is the first-order degradation rate constant. The degradation rate constant (k) was estimated by one-phase exponential decay nonlinear regression analysis of the degradation time course data using Xlfit software (version 2.1.2 or higher) from IDBS.Ltd.

C57BL/6J mice = test: Pyruvate tolerance test; type: in vivo, mouse; conditions: 50 mg kg^−1 ip, pyruvate 2 g kg^−1
Method: Pyruvate tolerance test was performed on 18 h-fasted mice (12 week-old male C57BL/6J mice, n=8 for each group, randomized on blood glucose at the end of the fasting period). […] Fifteen minutes later, blood glucose was measured before and after (up to 120 min) intraperitoneal sodium pyruvate (2 g kg^−1) injection. The AUC of glycaemia versus time were calculated to estimate the total glucose synthesized from pyruvate. Blood glucose levels were determined using an Accu-Check glucometer (Roche Diagnostics). The protocol was approved by the ethical comitee CEEA Nord Pas de Calais (CEEA75).

[1] = LogD measurement octanol/PBS pH 7.4; type: physicochemical; conditions: read-out: Logd7.4
Method: Ten microlitre of a 10 mM solution in DMSO of the compound are diluted either in 490 μl of PBS pH 7.4 or in organic solvent MeOH in a 700 μl-microtube (in triplicate). The tubes are gently shaken 24 h at room temperature, then centrifuged for 5 min at 4,000 r.p.m. The mixtures are filtered over 0.45 μm filters (Millex-LH Millipore). Twenty microlitre of sample are diluted in 180 μl of MeOH. The solubility is determined by the ratio of mass signal area PBS/ organic solvent. Forty microlitre of a 10 mM solution in DMSO of the compound were diluted in 1.960 ml of a 1/1 octanol /PBS at pH 7.4 mixture. The mixture was gently shaken 2 h at room temperature. Twenty microlitre of each phase was diluted in 480 μl of MeOH and analysed by LC–MS. Each compound is tested in triplicate. Log D was determined as the logarithm of the ratio of concentration of product in octanol and PBS respectively, determined by mass signals.

recombinant human ECE-1 = biological target: T1, recombinant human ECE-1 (Homo sapiens, UniProt P42892); test: Endothelin-converting enzyme inhibition (CEREP); type: biochemical; conditions: means of two experiments minimum, s.d.±10%; read-out: Selectivity IC50 hECE
T1 construct: host or cells: NSO cells
T1 sequence (P42892 1-770): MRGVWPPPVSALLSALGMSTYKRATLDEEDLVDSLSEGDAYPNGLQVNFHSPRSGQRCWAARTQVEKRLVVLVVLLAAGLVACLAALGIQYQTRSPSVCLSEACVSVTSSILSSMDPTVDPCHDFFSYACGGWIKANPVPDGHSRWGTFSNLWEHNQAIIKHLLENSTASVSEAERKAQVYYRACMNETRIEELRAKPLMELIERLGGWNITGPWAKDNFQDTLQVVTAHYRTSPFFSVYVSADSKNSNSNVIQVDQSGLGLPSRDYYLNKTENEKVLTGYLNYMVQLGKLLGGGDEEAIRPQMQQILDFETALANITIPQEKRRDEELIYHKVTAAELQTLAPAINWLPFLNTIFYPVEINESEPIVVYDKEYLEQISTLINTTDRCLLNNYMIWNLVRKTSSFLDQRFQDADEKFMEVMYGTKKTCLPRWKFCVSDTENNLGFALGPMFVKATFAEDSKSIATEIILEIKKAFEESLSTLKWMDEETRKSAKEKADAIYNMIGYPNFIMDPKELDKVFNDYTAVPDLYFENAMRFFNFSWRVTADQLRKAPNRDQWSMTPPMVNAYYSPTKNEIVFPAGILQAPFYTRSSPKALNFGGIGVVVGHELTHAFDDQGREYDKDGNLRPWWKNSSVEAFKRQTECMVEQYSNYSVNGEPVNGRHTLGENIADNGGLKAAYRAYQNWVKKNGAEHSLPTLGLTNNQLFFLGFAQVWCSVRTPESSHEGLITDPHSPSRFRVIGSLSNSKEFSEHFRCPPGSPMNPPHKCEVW

For `O=C(C[C@@H](Cc1ccc2ccccc2c1)n1cc(CNC(=O)c2ccc(F)cc2)nn1)NO` [Compound 1], the half-life at 10 μM (Stability in rat plasma) was 13.3 h, the “hepatic gluconeogenesis in pyruvate tolerance test” value (C57BL/6J mice) was “No effect on gluconeogenesis; also recorded: not altered” and the logD [1] was 2.2. It also gave an IC50 (recombinant human ECE-1) of 6.5 µM.
